Test results: patent US10934310B2, “Inhibitors of Bruton's tyrosine kinase and method of their use” (JANSSEN PHARMACEUTICA NV, priority 2015, dated 2021)

biological target: unphosphorylated-BTK kinase domain (UP-BTK), GST-tagged human BTK (389-659aa) (Homo sapiens (Human), UniProt Q06187); experiment: BTK Kinase Lanthascreen Binding Assay; settings: Lanthascreen binding, 60 minutes incubation; pIC50 = negative log of the IC50 in molar
Description: BTK Kinase Lanthascreen Binding Assay:
A BTK kinase lanthascreen binding assay monitors compound binding to unphosphorylated-BTK kinase domain (UP-BTK), by competing with a fluorescent labeled tracer. […] Data were analyzed using Xlfit™ version 5.3 from ID Business Solutions (Guildford), Microsoft Excel add-in. pIC50 refers to the negative log of the IC50 in molar.

Chain of unphosphorylated-BTK kinase domain (UP-BTK), GST-tagged human BTK (389-659aa) (Q06187 389-659): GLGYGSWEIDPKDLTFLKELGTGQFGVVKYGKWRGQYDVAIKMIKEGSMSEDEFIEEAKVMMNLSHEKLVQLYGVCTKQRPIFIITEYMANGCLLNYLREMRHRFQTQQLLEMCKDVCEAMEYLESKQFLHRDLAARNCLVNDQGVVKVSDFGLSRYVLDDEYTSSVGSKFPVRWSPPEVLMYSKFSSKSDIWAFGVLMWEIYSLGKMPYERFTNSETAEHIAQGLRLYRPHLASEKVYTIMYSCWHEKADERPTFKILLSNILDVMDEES

Row | SMILES | BTK_I_binding pIC50
1 | C=CC(=O)N[C@H]1CCCC[C@H]1NC(=O)c1sc2nccc3c2c1NC(=O)N3c1cnc(OCC(C)C)cc1C (single isomer, unassigned) [Example 312, N-((1R,2S)-2-Acrylamidocyclohexyl)-5-(*S)-(6-isobutoxy-4-methylpyridin-3-yl)-4-oxo-4,5-dihydro-3H-1-thia-3,5,8-triazaacenaphthylene-2-carboxamide] | 8.01
2 | Cc1cc(Oc2ccccc2)ncc1N1C(=O)Nc2c(C(=O)N[C@H]3CC[C@@H](N)C3)sc3nccc1c23 (single isomer, unassigned) [Example 431, N-((1S,3R)-3-Aminocyclopentyl)-5-(*S)-(4-methyl-6-phenoxypyridin-3-yl)-4-oxo-4,5-dihydro-3H-1-thia-3,5,8-triazaacenaphthylene-2-carboxamide] | 6.68
3 | C=CC(=O)N[C@@H]1CCCC[C@H]1NC(=O)c1sc2nccc3c2c1NC(=O)N3c1ccc(Oc2ccccc2)cc1C (single isomer, unassigned) [Example 439, N-((1R,2R)-2-Acrylamidocyclohexyl)-5-(*S)-(2-methyl-4-phenoxyphenyl)-4-oxo-4,5-dihydro-3H-1-thia-3,5,8-triazaacenaphthylene-2-carboxamide] | 7.53
4 | Cc1cc(Oc2ccccc2)ccc1N1C(=O)Nc2c(C(=O)N3CC[C@H](N)C3)sc3nccc1c23 [Example 420, (S)-2-(3-Aminopyrrolidine-1-carbonyl)-5-(2-methyl-4-phenoxyphenyl)-3H-1-thia-3,5,8-triazaacenaphthylen-4(5H)-one] | 5.73

Results, then the compound that gave them:

Row | BTK_I_binding pIC50 | SMILES
5 | 8.53 | C=CC(=O)N[C@H]1CCCC[C@H]1NC(=O)c1sc2nccc3c2c1NC(=O)N3c1ncc(Oc2ccccc2)cn1 [Example 297, N-((1R,2S)-2-Acrylamidocyclohexyl)-4-oxo-5-(5-phenoxypyrimidin-2-yl)-4,5-dihydro-3H-1-thia-3,5,8-triazaacenaphthylene-2-carboxamide]
6 | 7.83 | C=CC(=O)N[C@@H]1CC[C@H](NC(=O)c2sc3nccc4c3c2NC(=O)N4c2ccc(Oc3ccccc3)cn2)C1 (single isomer, unassigned) [Example 313]
7 | 8.40 | C=CC(=O)N[C@H]1CCCC[C@H]1NC(=O)c1sc2nccc3c2c1NC(=O)N3c1ccc(Oc2ccccc2)nc1C (single isomer, unassigned) [Example 303, N-((1R,2S)-2-Acrylamidocyclohexyl)-5-(*S)-(2-methyl-6-phenoxypyridin-3-yl)-4-oxo-4,5-dihydro-3H-1-thia-3,5,8-triazaacenaphthylene-2-carboxamide]
8 | 6.05 | CC(=O)NC1CCC[C@H](NC(=O)c2sc3nccc4c3c2NC(=O)N4c2cnc(Oc3ccccc3)cc2C)C1 (single isomer, unassigned) [Example 407, N-((1S,3R)-3-Acetamidocyclohexyl)-5-(*S)-(4-methyl-6-phenoxypyridin-3-yl)-4-oxo-4,5-dihydro-3H-1-thia-3,5,8-triazaacenaphthylene-2-carboxamide]
9 | 6.51 | CCC(=O)N[C@H]1CC[C@H](NC(=O)c2sc3nccc4c3c2NC(=O)N4c2cnc(Oc3ccccc3)cc2C)C1 (single isomer, unassigned) [Example 399, 5-(*S)-(4-Methyl-6-phenoxypyridin-3-yl)-4-oxo-N-((1S,3S)-3-propionamidocyclopentyl)-4,5-dihydro-3H-1-thia-3,5,8-triazaacenaphthylene-2-carboxamide]
10 | 6.26 | CC(=O)N[C@H]1CCC[C@@H](NC(=O)c2sc3nccc4c3c2NC(=O)N4c2cnc(Oc3ccccc3)cc2C)C1 (single isomer, unassigned) [Example 360, N-((1R,3S)-3-Acetamidocyclohexyl)-5-(*S)-(4-methyl-6-phenoxypyridin-3-yl)-4-oxo-4,5-dihydro-3H-1-thia-3,5,8-triazaacenaphthylene-2-carboxamide]
11 | 6.22 | O=C(NC1CCCCC1)c1sc2nccc3c2c1NC(=O)N3c1ccc(Oc2ccccc2)cc1 [Example 463, N-Cyclohexyl-4-oxo-5-(4-phenoxyphenyl)-4,5-dihydro-3H-1-thia-3,5,8-triazaacenaphthylene-2-carboxamide]

same assay, conditions: compound, 50 nM Tracer 236, 2 nM anti-GST antibody, 60 minutes; pIC50 = negative log of the IC50 in molar

Row | SMILES | BTK_I_binding pIC50
12 | C=CC(=O)N[C@H]1CCCC[C@H]1NC(=O)c1sc2nccc3c2c1NC(=O)N3c1cccc(-c2ccccc2)c1 [Example 106, 5-([1,1′-Biphenyl]-3-yl)-N-((1R,2S)-2-acrylamidocyclohexyl)-4-oxo-4,5-dihydro-3H-1-thia-3,5,8-triazaacenaphthylene-2-carboxamide] | 8.06
13 | C=CC(=O)N[C@@H]1CC[C@@H](NC(=O)c2sc3nccc4c3c2NC(=O)N4c2ccc(Oc3ccccc3)cc2C)C1 [Example 184, N-((1R,3R)-3-Acrylamidocyclopentyl)-5-(2-methyl-4-phenoxyphenyl)-4-oxo-4,5-dihydro-3H-1-thia-3,5,8-triazaacenaphthylene-2-carboxamide] | 7.55
14 | Cc1cc(Oc2ccccc2)ccc1N1C(=O)Nc2c(C(=O)N[C@@H]3CCCC[C@@H]3N)sc3nccc1c23 [Example 10, N-((1R,2S)-2-Aminocyclohexyl)-5-(2-methyl-4-phenoxyphenyl)-4-oxo-4,5-dihydro-3H-1-thia-3,5,8-triazaacenaphthylene-2-carboxamide] | 7.35
15 | C=CC(=O)N[C@H]1CCCC[C@H]1NC(=O)c1sc2nccc3c2c1NC(=O)N3c1ccc(OC2CCC2)nc1C (single isomer, unassigned) [Example 204, N-((1R,2S)-2-Acrylamidocyclohexyl)-5-(*S)-(6-cyclobutoxy-2-methylpyridin-3-yl)-4-oxo-4,5-dihydro-3H-1-thia-3,5,8-triazaacenaphthylene-2-carboxamide] | 8.03
16 | Cc1cc(Oc2ccccc2)ccc1N1C(=O)Nc2c(C(=O)N[C@H]3CC[C@@H](O)CC3)sc3nccc1c23 [Example 16, N-((1S,4S)-4-Hydroxycyclohexyl)-5-(2-methyl-4-phenoxyphenyl)-4-oxo-4,5-dihydro-3H-1-thia-3,5,8-triazaacenaphthylene-2-carboxamide] | 7.14
17 | N[C@H]1CCCC[C@H]1NC(=O)c1sc2nccc3c2c1NC(=O)N3c1ccc(Oc2ccccc2)cc1 [Example 126, N-((1R,2S)-2-Aminocyclohexyl)-4-oxo-5-(4-phenoxyphenyl)-4,5-dihydro-3H-1-thia-3,5,8-triazaacenaphthylene-2-carboxamide] | 7.13
18 | Cc1cc(Oc2ccccc2)ccc1N1C(=O)Nc2c(C(=O)N[C@H]3CC[C@H](NC(=O)CN(C)C)C3)sc3nccc1c23 [Example 245, N-((1S,3S)-3-(2-(Dimethylamino)acetamido)cyclopentyl)-5-(2-methyl-4-phenoxyphenyl)-4-oxo-4,5-dihydro-3H-1-thia-3,5,8-triazaacenaphthylene-2-carboxamide] | 6.73

Next, values leading:

Row | BTK_I_binding pIC50 | SMILES
19 | 5.36 | Cc1cc(Oc2ccccc2)ccc1N1C(=O)Nc2c(C(=O)N[C@@H]3CCC[C@H]3O)sc3nccc1c23 (single isomer, unassigned) [Example 61, N-((1R,2R)-2-Hydroxycyclopentyl)-5-(*R)-(2-methyl-4-phenoxyphenyl)-4-oxo-4,5-dihydro-3H-1-thia-3,5,8-triazaacenaphthylene-2-carboxamide]
20 | 7.73 | CCC(=O)N[C@@H]1CC[C@H](NC(=O)c2sc3nccc4c3c2NC(=O)N4c2ccc(Oc3ccccc3)cc2C)C1 [Example 69, 5-(2-Methyl-4-phenoxyphenyl)-4-oxo-N-((1S,3R)-3-propionamidocyclopentyl)-4,5-dihydro-3H-1-thia-3,5,8-triazaacenaphthylene-2-carboxamide]
21 | 7.29 | CNCC(=O)N[C@@H]1CC[C@@H](NC(=O)c2sc3nccc4c3c2NC(=O)N4c2ccc(Oc3ccccc3)cc2C)C1 [Example 229, 5-(2-Methyl-4-phenoxyphenyl)-N-((1R,3R)-3-(2-(methylamino)acetamido)cyclopentyl)-4-oxo-4,5-dihydro-3H-1-thia-3,5,8-triazaacenaphthylene-2-carboxamide]
22 | 7.95 | C=CC(=O)N[C@@H]1CC[C@H](NC(=O)c2sc3nccc4c3c2NC(=O)N4c2ccc(Oc3ccccc3)c(Cl)c2)C1 [Example 191, N-((1S,3R)-3-Acrylamidocyclopentyl)-5-(3-chloro-4-phenoxyphenyl)-4-oxo-4,5-dihydro-3H-1-thia-3,5,8-triazaacenaphthylene-2-carboxamide]
23 | 6.76 | C=CC(=O)N[C@H]1CCC[C@H]1NC(=O)c1sc2nccc3c2c1NC(=O)N3c1ccc(OC2CCOCC2)cc1 [Example 234, N-((1R,2S)-2-Acrylamidocyclopentyl)-4-oxo-5-(4-((tetrahydro-2H-pyran-4-yl)oxy)phenyl)-4,5-dihydro-3H-1-thia-3,5,8-triazaacenaphthylene-2-carboxamide]
24 | 8.35 | C=CC(=O)N[C@H]1CCCC[C@H]1NC(=O)c1sc2nccc3c2c1NC(=O)N3c1ccc(Oc2ccccc2)nc1 [Example 172, N-((1R,2S)-2-Acrylamidocyclohexyl)-4-oxo-5-(6-phenoxypyridin-3-yl)-4,5-dihydro-3H-1-thia-3,5,8-triazaacenaphthylene-2-carboxamide]

same assay, conditions: read-out: BTK_I_binding pIC50 (converted)

Row | IC50 [nM] | SMILES
25 | > 1000 | Cc1cc(Oc2ccccc2)ncc1N1C(=O)Nc2c(C(=O)N[C@@H]3CCC[C@H](N)C3)sc3nccc1c23 (single isomer, unassigned) [Example 356, N-((1R,3S)-3-Aminocyclohexyl)-5-(*S)-(4-methyl-6-phenoxypyridin-3-yl)-4-oxo-4,5-dihydro-3H-1-thia-3,5,8-triazaacenaphthylene-2-carboxamide]
26 | > 1000 | CC(=O)N[C@@H]1CCC[C@@H]1NC(=O)c1sc2nccc3c2c1NC(=O)N3c1ccnc(-c2ccccc2)c1 [Example 258, N-((1S,2R)-2-Acetamidocyclopentyl)-4-oxo-5-(2-phenylpyridin-4-yl)-4,5-dihydro-3H-1-thia-3,5,8-triazaacenaphthylene-2-carboxamide]
